From patent US20240350643A1, “PROTEIN DEGRADATION AGENT” (SUZHOU KINTOR PHARMACEUTICALS, INC., priority 2021, published 2024)

Key:
[1] = target: T1, c-Myc protein (Homo sapiens, UniProt P01106); assay: Ability of compounds to degrade c-Myc protein in HL60 cells (ELISA); format: cell-based; settings: HL-60, 1 μM compound, 24 h, read-out: HL60 cells Protein degradation rate (1 μM)
T1 construct: endogenous in cells; host or cells: HL60 cells

[2] = system: HL60 cells; assay: Anti-proliferation ability of compounds on HL60 cells (CTG); format: cell-based, human; settings: Homo sapiens, HL-60, 72 h, 3 days, CellTiter-Glo, read-out: HL60 cells Proliferation inhibitory activity
Procedure, shortened: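 Proliferation inhibition IC50 derived from CellTiter-Glo luminescence after 3-day compound treatment of HL60 cells plated at 20000 per well, against 0.1% DMSO controls.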

T1 sequence (P01106 whole entry): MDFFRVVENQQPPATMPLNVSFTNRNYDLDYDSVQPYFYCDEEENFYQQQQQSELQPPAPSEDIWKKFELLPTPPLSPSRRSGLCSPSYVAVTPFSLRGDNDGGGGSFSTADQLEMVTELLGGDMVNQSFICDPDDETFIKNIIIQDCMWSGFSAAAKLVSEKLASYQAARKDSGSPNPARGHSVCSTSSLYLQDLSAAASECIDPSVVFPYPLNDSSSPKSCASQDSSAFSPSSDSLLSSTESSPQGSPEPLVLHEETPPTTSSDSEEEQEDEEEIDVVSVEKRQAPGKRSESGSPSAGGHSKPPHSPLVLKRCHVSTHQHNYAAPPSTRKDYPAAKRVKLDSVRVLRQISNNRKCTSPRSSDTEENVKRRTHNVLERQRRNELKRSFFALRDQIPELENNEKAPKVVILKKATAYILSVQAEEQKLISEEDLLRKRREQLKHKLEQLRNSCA

inhibition at 1 µM [1] [%]	IC50 [2] [nM]	Compound
60 to 90	1.2 ± 0.1	O=C(Cc1c(F)ccc2ccccc12)NCc1ccc(CNC(=O)c2ccc3c(c2)CN(C2CCC(=O)NC2=O)C3=O)cc1 (stereo not drawn) [A154]
60 to 90	5.5 ± 3.3	COc1cc(CNC(=O)c2ccc3c(c2)C(=O)N(C2CCC(=O)NC2=O)C3=O)ccc1CNC(=O)Cn1c2ccccc2c2cccnc21 (stereo not drawn) [A116]
60 to 90	336 ± 30	O=C1CCC(N2C(=O)c3ccc(C(=O)NC[C@H]4CC[C@H](CNC(=O)Nc5nccc6ccccc56)CC4)cc3C2=O)C(=O)N1 (stereo partly drawn) [A51]
60 to 90	16.7 ± 9.5	CN(CCc1cccc2ccccc12)Cc1ccc(C(C)(C)NC(=O)c2ccc3c(c2)C(=O)N(C2CCC(=O)NC2=O)C3=O)cc1 (stereo not drawn) [A147]
60 to 90	< 3	COCCN(CCc1cccc2ccccc12)Cc1ccc(CNC(=O)c2ccc3c(c2)C(=O)N(C2CCC(=O)NC2=O)C3=O)cc1 (stereo not drawn) [A90]
60 to 90	3.6 ± 0.1	CN(CCn1c2ccccc2c2cccnc21)Cc1ccc(CNC(=O)c2ccc3c(c2)C(=O)N(C2CCC(=O)NC2=O)C3=O)nc1 (stereo not drawn) [A127]
60 to 90	2.4 ± 0.3	O=C1CCC(N2Cc3cc(C(=O)NCc4ccc(C5(NC(=O)Cn6c7ccccc7c7cccnc76)CC5)cc4F)ccc3C2=O)C(=O)N1 (stereo not drawn) [A164]
60 to 90	2 ± 0.9	O=C(CN1CCCc2ccccc21)NCc1ccc(CC(=O)Nc2ccc3c(c2)CN(C2CCC(=O)NC2=O)C3=O)cc1 (stereo not drawn) [A201]
60 to 90	1360	CC(C)(C(=O)NCc1ccc(CNC(=O)c2ccc3c(c2)C(=O)N(C2CCC(=O)NC2=O)C3=O)cc1)c1cccc2ccccc12 (stereo not drawn) [A31]
60 to 90	11.3 ± 4.7	CN(CCn1c2ccccc2c2cccnc21)C(C)(C)c1ccc(CNC(=O)c2ccc3c(c2)C(=O)N(C2CCC(=O)NC2=O)C3=O)cc1 (stereo not drawn) [A151]
60 to 90	26.1 ± 2	O=C(Cn1c2ccccc2c2cccnc21)NCc1ccc(CNC(=O)c2ccc3c(c2)C(=O)N(C2CCC(=O)NC2=O)C3=O)nc1 (stereo not drawn) [A125]
60 to 90	6820 ± 1630	O=C1CCC(N2C(=O)c3ccc(C(=O)NC[C@H]4CC[C@H](CNC(=O)Nc5cccc6cnccc56)CC4)cc3C2=O)C(=O)N1 (stereo partly drawn) [A49]
30 to 60	69.8 ± 8.8	O=C(Cc1cccc2ccccc12)NCCCCCCNC(=O)c1ccc2c(c1)C(=O)N(C1CCC(=O)NC1=O)C2=O (stereo not drawn) [A8]
60 to 90	6.5 ± 0.3	O=C1CCC(N2C(=O)c3ccc(C(=O)NCc4ccc(C5(NC(=O)Cc6cccc7ccccc67)CC5)cc4)cc3C2=O)C(=O)N1 (stereo not drawn) [A141]
30 to 60	270 ± 126	O=C(Cn1c2ccccc2c2ccncc21)NC[C@H]1CC[C@H](CNC(=O)c2ccc3c(c2)C(=O)N(C2CCC(=O)NC2=O)C3=O)CC1 (stereo partly drawn) [A25]
60 to 90	1.9 ± 0.6	CN(CCc1ccc(Cl)cc1Cl)Cc1ccc(CC(=O)Nc2ccc3c(c2)C(=O)N(C2CCC(=O)NC2=O)C3=O)cc1 (stereo not drawn) [A169]
10 to 30	48.5 ± 6	O=C(Cc1cccc(Cl)c1Cl)NCc1ccc(CNC(=O)c2ccc3c(c2)C(=O)N(C2CCC(=O)NC2=O)C3=O)cc1 (stereo not drawn) [A60]
60 to 90	1.2 ± 0.1	O=C1CCC(N2Cc3cc(C(=O)NCc4ccc(CNc5nccc(-c6cccc7ccccc67)n5)cc4)ccc3C2=O)C(=O)N1 (stereo not drawn) [A220]
30 to 60	2820 ± 1060	CC(C)(C)OC(=O)NC[C@H]1CC[C@H](CNC(=O)c2ccc3c(c2)C(=O)N(C2CCC(=O)NC2=O)C3=O)CC1 (stereo partly drawn) [A26]
60 to 90	2020	O=C(Cc1cccc(F)c1)NCc1ccc(CNC(=O)c2ccc3c(c2)C(=O)N(C2CCC(=O)NC2=O)C3=O)cc1 (stereo not drawn) [A64]
60 to 90	4.2	CN(CCn1c2ccccc2c2cccnc21)Cc1ccc(CNC(=O)c2ccc3c(c2)C(=O)N(C2CCC(=O)NC2=O)C3=O)c(F)c1 (stereo not drawn) [A106]
60 to 90	16.7 ± 2.5	CN(CCc1cccc2cccnc12)Cc1ccc(CNCc2ccc3c(c2)C(=O)N(C2CCC(=O)NC2=O)C3=O)cc1 (stereo not drawn) [A183]
60 to 90	44.4 ± 0.3	CN(CCc1cccc2ccccc12)Cc1ccc(CNC(=O)c2ccc3c(c2)C(=O)N(C2CCC(=O)NC2=O)C3=O)c(C(F)(F)F)c1 (stereo not drawn) [A119]
30 to 60	55.4 ± 6.7	O=C(Cn1c2ccccc2c2ccccc21)NC[C@H]1CC[C@H](CNC(=O)c2ccc3c(c2)C(=O)N(C2CCC(=O)NC2=O)C3=O)CC1 (stereo partly drawn) [A23]
30 to 60	279 ± 33.8	CN(Cc1ccc(CNC(=O)Cc2nccc3ccccc23)cc1)Cc1ccc2c(c1)C(=O)N(C1CCC(=O)NC1=O)C2=O (stereo not drawn) [A188]
30 to 60	29.2 ± 14.4	O=C(Cc1cccc2ccccc12)NC[C@H]1CC[C@H](CNC(=O)c2ccc3c(c2)C(=O)N(C2CCC(=O)NC2=O)C3=O)CC1 (stereo partly drawn) [A22]
60 to 90	5 ± 0.2	O=C(Cn1c2ccccc2c2cccnc21)NCc1ccc(CNC(=O)c2ccc3c(c2)CN(C2CCC(=O)N(COP(=O)(O)O)C2=O)C3=O)cc1 (stereo not drawn) [A228]

inhibition at 1 µM [1] [%]	IC50 [2] [nM]	Compound
60 to 90	112 ± 16.5	O=C(Cn1c2ccccc2c2cccnc21)NCc1cnc(CNC(=O)c2ccc3c(c2)C(=O)N(C2CCC(=O)NC2=O)C3=O)nc1 (stereo not drawn) [A131]
10 to 30	4210 ± 659	O=C(Cn1c2ccccc2c2cccnc21)NCc1ncc(CNC(=O)c2ccc3c(c2)C(=O)N(C2CCC(=O)NC2=O)C3=O)cn1 (stereo not drawn) [A132]
60 to 90	30.1 ± 21.1	O=C(Cc1cccc2ccccc12)NCc1ccc(CNC(=O)c2ccc3c(c2)C(=O)N(C2CCC(=O)NC2=O)C3=O)cc1 (stereo not drawn) [A29]
60 to 90	< 3	CC(=O)N(CCn1c2ccccc2c2cccnc21)Cc1ccc(CNC(=O)c2ccc3c(c2)C(=O)N(C2CCC(=O)NC2=O)C3=O)cc1 (stereo not drawn) [A82]
30 to 60	27.2 ± 7.6	CN(CCc1cccc2ccccc12)Cc1ccc(CNC(=O)c2ccc3c(c2)C(=O)N(C2CCC(=O)NC2=O)C3=O)cc1 (stereo not drawn) [A83]
60 to 90	5.8 ± 2.5	O=C(Cc1cccc2ccccc12)NCc1ccc(CNC(=O)c2ccc3c(c2)C(=O)N(C2CCC(=O)NC2=O)C3=O)c(F)c1 (stereo not drawn) [A103]
60 to 90	2730 ± 614	O=C1CCC(N2C(=O)c3ccc(C(=O)NCc4ccc(COCCc5cccc6ccccc56)cc4)cc3C2=O)C(=O)N1 (stereo not drawn) [A75]
60 to 90	155 ± 8.9	O=C(Cn1c2ccccc2c2cccnc21)NCCc1ccc(CNC(=O)c2ccc3c(c2)C(=O)N(C2CCC(=O)NC2=O)C3=O)cc1 (stereo not drawn) [A41]
60 to 90	2.1 ± 1.1	CN(CCc1cccc2ccccc12)Cc1ccc(CC(=O)Nc2ccc3c(c2)C(=O)N(C2CCC(=O)NC2=O)C3=O)cc1 (stereo not drawn) [A167]
60 to 90	9.2 ± 0.5	O=C(Cc1cccc2cccnc12)NCc1ccc(CNCc2ccc3c(c2)C(=O)N(C2CCC(=O)NC2=O)C3=O)cc1 (stereo not drawn) [A187]
10 to 30	178 ± 68.4	O=C1CCC(N2C(=O)c3ccc(CCCCCCC(=O)N(Cc4ccccc4)Cc4ccccc4)cc3C2=O)C(=O)N1 (stereo not drawn) [A21]
60 to 90	35.2 ± 9.3	CN(CCn1c2ccccc2c2cccnc21)Cc1ccc(CNC(=O)c2ccc3c(c2)C(=O)N(C2CCC(=O)NC2=O)C3=O)cc1C(F)(F)F (stereo not drawn) [A123]
60 to 90	702 ± 33.8	COc1ccccc1CCC(=O)NCc1ccc(CNC(=O)c2ccc3c(c2)C(=O)N(C2CCC(=O)NC2=O)C3=O)cc1 (stereo not drawn) [A63]
60 to 90	285 ± 10.7	O=C(Cc1cccc(Cl)c1)NCc1ccc(CNC(=O)c2ccc3c(c2)C(=O)N(C2CCC(=O)NC2=O)C3=O)cc1 (stereo not drawn) [A58]
30 to 60	226 ± 72	O=C(Cn1c2ccccc2c2ccccc21)NCCCCCCCCNC(=O)c1ccc2c(c1)C(=O)N(C1CCC(=O)NC1=O)C2=O (stereo not drawn) [A14]
60 to 90	22.9 ± 3	CN(CCc1cccc2ccccc12)C1(c2ccc(CNC(=O)c3ccc4c(c3)C(=O)N(C3CCC(=O)NC3=O)C4=O)cc2)CC1 (stereo not drawn) [A143]
60 to 90	0.5	O=C(Cn1c2ccccc2c2cccnc21)NCc1ccc(CNC(=O)c2ccc3c(c2)CN(C2CCC(=O)NC2=O)C3=O)cc1OC(F)(F)F (stereo not drawn) [A208]
60 to 90	22.5 ± 14.3	CN(CCc1cccc2ccccc12)Cc1ccc(C2(NC(=O)c3ccc4c(c3)C(=O)N(C3CCC(=O)NC3=O)C4=O)CC2)cc1 (stereo not drawn) [A139]
60 to 90	19.8 ± 4.8	CN(CCc1cccc(Cl)c1Cl)Cc1ccc(CNC(=O)c2ccc3c(c2)C(=O)N(C2CCC(=O)NC2=O)C3=O)cc1 (stereo not drawn) [A99]
60 to 90	81.1 ± 36.9	O=C1CCC(N2C(=O)c3ccc(C(=O)NCc4ccc(CN(CCn5c6ccccc6c6cccnc65)C5CC5)cc4)cc3C2=O)C(=O)N1 (stereo not drawn) [A89]
60 to 90	1850 ± 1230	N#Cc1ccccc1CC(=O)NCc1ccc(CNC(=O)c2ccc3c(c2)C(=O)N(C2CCC(=O)NC2=O)C3=O)cc1 (stereo not drawn) [A66]
60 to 90	11 ± 1.7	CN(CCn1c2ccccc2c2cccnc21)Cc1ccc(C2(NC(=O)c3ccc4c(c3)C(=O)N(C3CCC(=O)NC3=O)C4=O)CC2)cc1 (stereo not drawn) [A140]
60 to 90	32.1 ± 1.3	O=C(Cc1nccc2ccccc12)NCc1ccc(CNCc2ccc3c(c2)C(=O)N(C2CCC(=O)NC2=O)C3=O)cc1 (stereo not drawn) [A186]
30 to 60	314	O=C(Cc1cccc2ccccc12)NCc1cccc(CNC(=O)c2ccc3c(c2)C(=O)N(C2CCC(=O)NC2=O)C3=O)c1 (stereo not drawn) [A37]
60 to 90	473 ± 93.3	O=C(Cc1ccccc1Br)NCc1ccc(CNC(=O)c2ccc3c(c2)C(=O)N(C2CCC(=O)NC2=O)C3=O)cc1 (stereo not drawn) [A65]
60 to 90	12 ± 4.4	COCCN(CCn1c2ccccc2c2cccnc21)Cc1ccc(CNC(=O)c2ccc3c(c2)C(=O)N(C2CCC(=O)NC2=O)C3=O)cc1 (stereo not drawn) [A91]
30 to 60	1710 ± 120	O=C(Cc1cccc2ccccc12)NCc1csc(CNC(=O)c2ccc3c(c2)C(=O)N(C2CCC(=O)NC2=O)C3=O)n1 (stereo not drawn) [A135]
